Residues, ends and D or L forms follow the SMILES beside them.
Key:
defibrinated sheep blood = assay: Hemolysis assay; assay type: cell-based; conditions: for Hemo/MIC = (< 20% Hemo) / MIC Ec: MICs >50 µM treated as 100 µM, >200 µM treated as 200 µM
E. coli (ATCC 25922) = assay: Antimicrobial susceptibility testing; assay type: cell-based, Escherichia coli; conditions: summary values

Row | Compound | Fold Δ = (Hemo/MIC of compound) / (Hemo/MIC of LL-37) (defibrinated sheep blood; Figure 1B) | Fold Δ = (Hemo/MIC of compound) / (Hemo/MIC of LL-37) (defibrinated sheep blood; Figure 6C) | Hemo/MIC = (< 20% Hemo) / MIC Ec (defibrinated sheep blood; Figure 6C) | MIC against E. coli as stated in the text and in the table of contents graphic (E. coli (ATCC 25922)) | further results
1 | CC[C@H](C)[C@H](NC(=O)[C@H](CCCCN)NC(=O)[C@H](CCC(=O)O)NC(=O)[C@H](CCCCN)NC(=O)[C@H](CO)NC(=O)[C@H](CCCCN)NC(=O)[C@H](CCCNC(=N)N)NC(=O)[C@H](Cc1ccccc1)NC(=O)[C@H](Cc1ccccc1)NC(=O)[C@H](CC(=O)O)NC(=O)CN)C(=O)NCC(=O)N[C@@H](CCCCN)C(=O)N[C@@H](CCC(=O)O)C(=O)N[C@@H](Cc1ccccc1)C(=O)N[C@@H](CCCCN)C(=O)N[C@@H](CCCNC(=N)N)C(=O)N[C@H](C(=O)N[C@H](C(=O)N[C@@H](CCC(N)=O)C(=O)N[C@@H](CCCNC(=N)N)C(=O)N[C@H](C(=O)N[C@@H](CCCCN)C(=O)O)[C@@H](C)CC)C(C)C)[C@@H](C)CC [(#4) GD-23] (H-GDFFRKSKEKIGKEFKRIVQRIK-OH; N-terminus and C-terminus assumed) | 64 | 32 | 32 | – | –
2 | CC[C@H](C)[C@H](NC(=O)[C@H](CCCNC(=N)N)NC(=O)[C@H](CCC(N)=O)NC(=O)[C@@H](NC(=O)[C@@H](NC(=O)[C@H](CCCNC(=N)N)NC(=O)[C@@H](N)CCCCN)[C@@H](C)CC)C(C)C)C(=O)N[C@@H](CCCCN)C(=O)N[C@@H](CC(=O)O)C(=O)N[C@@H](Cc1ccccc1)C(=O)N[C@@H](CC(C)C)C(=O)N[C@@H](CCCNC(=N)N)C(=O)O [(#10) KR-12] (H-KRIVQRIKDFLR-OH) | – | – | – | > 50 µM | –
3 | CC[C@H](C)[C@H](NC(=O)[C@H](CCCNC(=N)N)NC(=O)[C@H](CCC(N)=O)NC(=O)[C@@H](NC(=O)[C@@H](NC(=O)[C@H](CCCNC(=N)N)NC(=O)[C@H](CCCCN)NC(=O)[C@H](Cc1ccccc1)NC(=O)[C@@H](N)Cc1ccccc1)[C@@H](C)CC)C(C)C)C(=O)N[C@@H](CCCCN)C(=O)N[C@@H](CC(=O)O)C(=O)N[C@@H](Cc1ccccc1)C(=O)N[C@@H](CC(C)C)C(=O)N[C@@H](CCCNC(=N)N)C(=O)O [(#18) FF-14] (H-FFKRIVQRIKDFLR-OH) | – | – | – | 3.1 µM | –
4 | CC[C@H](C)[C@H](NC(=O)[C@H](CCCCN)NC(=O)[C@H](CCC(=O)O)NC(=O)[C@H](CCCCN)NC(=O)[C@H](CO)NC(=O)[C@H](CCCCN)NC(=O)[C@H](CCCNC(=N)N)NC(=O)[C@H](Cc1ccccc1)NC(=O)[C@H](Cc1ccccc1)NC(=O)[C@H](CC(=O)O)NC(=O)CNC(=O)[C@H](CC(C)C)NC(=O)[C@@H](N)CC(C)C)C(=O)NCC(=O)N[C@@H](CCCCN)C(=O)N[C@@H](Cc1ccccc1)C(=O)N[C@@H](Cc1ccccc1)C(=O)N[C@@H](CCCCN)C(=O)N[C@@H](CCCNC(=N)N)C(=O)N[C@H](C(=O)N[C@H](C(=O)N[C@@H](CCC(N)=O)C(=O)N[C@@H](CCCNC(=N)N)C(=O)N[C@H](C(=O)N[C@@H](CCCCN)C(=O)O)[C@@H](C)CC)C(C)C)[C@@H](C)CC [(#49) LL-25 (FF)] (H-LLGDFFRKSKEKIGKFFKRIVQRIK-OH; N-terminus assumed) | – | 4 | 4 | – | –
5 | CC[C@H](C)[C@H](NC(=O)[C@H](CCCCN)NC(=O)[C@H](CCC(=O)O)NC(=O)[C@H](CCCCN)NC(=O)[C@H](CO)NC(=O)[C@H](CCCCN)NC(=O)[C@H](CCCNC(=N)N)NC(=O)[C@H](Cc1ccccc1)NC(=O)[C@H](Cc1ccccc1)NC(=O)[C@H](CC(=O)O)NC(=O)CN)C(=O)NCC(=O)N[C@@H](CCCCN)C(=O)N[C@@H](Cc1ccccc1)C(=O)N[C@@H](Cc1ccccc1)C(=O)N[C@@H](CCCCN)C(=O)N[C@@H](CCCNC(=N)N)C(=O)N[C@H](C(=O)N[C@H](C(=O)N[C@@H](CCC(N)=O)C(=O)N[C@@H](CCCNC(=N)N)C(=O)N[C@H](C(=O)N[C@@H](CCCCN)C(=O)O)[C@@H](C)CC)C(C)C)[C@@H](C)CC [(#53) GD-23 (FF)] (H-GDFFRKSKEKIGKFFKRIVQRIK-OH; N-terminus and C-terminus assumed) | – | 16 | 16 | – | –
6 | Colistin [reference compound] | 512 | – | – | – | Fold Δ = (Hemo/MIC of compound) / (Hemo/MIC of LL-37) (defibrinated sheep blood; Figure 2B): 256; Hemo/MIC = (< 20% Hemo) / MIC Ec (defibrinated sheep blood; Figure 2B): 64; Hemo/MIC = (< 20% Hemo) / MIC Ec (defibrinated sheep blood; Figure 4B): 128
